# Reference: US20260183302A1, “PDK1 REGULATORY COMPOUND AND COMPOSITION CONTAINING THE SAME” (PROVIBIO CO., LTD., priority 2024, published 2026)
# “Also recorded” adds a separate entry of the source.
# What was measured:
# psoriasis-induced mice = experiment: In vivo psoriasis model (Aldara cream, Imiquimod); parameters: species or system BALB/c mice
# Procedure: To verify the therapeutic effect of the compound according to the present invention on psoriasis, a psoriasis animal model was established as follows, and the compound according to the present invention was administered to evaluate the alleviation of skin lesions and changes in immune cell patterns.
# For the establishment of the psoriasis animal model, BALB/c mice (7 weeks old, female, 20 g) were purchased from HanabioTech Co., Ltd. and acclimatized to the rearing environment for one week.
# Subsequently, the hair on the mouse back was shaved using a hair removal device for the first time, and then completely shaved using a depilatory cream (Nicrin Cream (80% thioglycolic acid, Il Dong Pharmaceutical)) for the second time. The mice were then kept for 24 hours to confirm the absence of skin damage.
# To verify the psoriasis prevention and therapeutic effects of the compounds according to the present invention, the following experimental groups were established:
# [Normal control group (Normal, Not Treatment), psoriasis-induced control group (Psoriasis, Not Treatment), psoriasis-induced vehicle control group (Psoriasis, Vehicle), experimental group (GO85, GO86, GO88, GO89, PBK-2024-010, PBK-2024-026, PBK-2025-002, PBK-2025-004, PBK-2025-016, PBK-2025-017, PBK-2025-023)]. […]
# Body weights of mice in each group were measured on days 1, 4, and 8 after the start of injection and psoriasis induction. […]
# To evaluate the therapeutic effect in a psoriasis-induced mouse model, the PASI (Psoriasis Area and Severity Index) score was measured.
# The PASI score is based on three criteria: erythema, scaling, and skin thickness, each scored from 0 (none) to 4 (severe). […]
# Observations were conducted daily at the same time, and the same observer visually assessed each criterion and recorded the scores, with the results presented in FIG. 13. […]
# All samples were measured in duplicate, and the absorbance was measured at 450 nm using a microplate reader.
# [1] = system: PDK1 phosphorylation in SU-DHL-8 cells; experiment: PDK1 phosphorylation inhibition by flow cytometry (pPDK1-PE) in SU-DHL-8 cells; assay type: cell-based, human; details: SU-DHL-8, 24 hours, vs control group
# Procedure: After stabilizing the cells, the compound of the present invention was added, and the cells were cultured for 24 hours.
# After drug treatment, the cells were harvested, and the Fc receptor blocking process was performed. The cells were then fixed and permeabilized using the Intracellular Staining Kit (Cat. No. BD554715) from BD Biosciences. Subsequently, the intracellular pPDK1 was stained using the pPDK1-PE fluorescently labeled antibody (BD Biosciences).
# Referring to the figure, the vertical axis represents the phosphorylation level of PDK1 (phospho-PDK1 expression level), and the horizontal axis denotes the concentration-dependent treatment conditions of each compound.
# [2] = system: pulmonary fibrosis-induced mice; experiment: Bleomycin-induced pulmonary fibrosis animal model; assay type: in vivo, Balb/c mice; details: bleomycin mice lung, vs BLM-treated group
# Text: To evaluate the therapeutic efficacy of the compound according to the present invention against pulmonary fibrosis, an animal model of pulmonary fibrosis induced by bleomycin intratracheal administration was established.
# For this purpose, 8-week-old male Balb/c mice were subjected to general anesthesia using an inhalation anesthetic (2-3% isoflurane in oxygen), followed by disinfection of the neck region, skin incision, and exposure of the trachea.
# Bleomycin (Sigma-Aldrich, USA) was directly administered into the trachea at a concentration of 5 mg/kg in a solution of 100 μL.
# Two days prior to Bleomycin administration, the compound of the present invention or the comparative drug was administered intraperitoneally at the specified concentration and dose, and the administration was continued once daily for a total of 14 days.
# The experimental groups included Normal, Bleomycin alone (BLM), and BLM plus the compound of the present invention (BLM+GO88, 0.2 mg/kg).
# Ten days later, the mice were euthanized humanely using carbon dioxide gas, the trachea was incised, and PBS was injected into the trachea to remove blood from the lungs.
# The lung tissue washed with PBS was excised, fixed in 4% paraformaldehyde solution for 24 hours, and then paraffin blocks and tissue sections were prepared. The prepared sections were subjected to pathological analysis using H&E, Masson's trichrome, and Sirius red staining.
# Additionally, immunohistochemical (IHC) staining was performed for α-SMA (α-smooth muscle actin), an indicator of lung fibroblast activation.
# [3] = system: MRL/lpr mice with hair loss in the facial region; experiment: Hair loss treatment and hair follicle Ki-67 IHC in MRL/lpr mice; assay type: in vivo; details: 41-week-old female MRL/lpr; GO15F (30 mg/kg), GO48 (1 mg/kg), GO88 (0.5 mg/kg) intraperitoneal once daily
# Procedure: Additionally, in 41-week-old female MRL/Ipr mice, the compounds GO15F (30 mg/kg), GO48 (1 mg/kg), and GO88 (0.5 mg/kg) were administered intraperitoneally once daily.
# To confirm the proliferative activity of hair follicle cells in the skin tissue of these mice, the mice were sacrificed 14 days after administration of the compounds of the present invention, and Ki-67 immunohistochemistry (IHC) was performed.
# For this purpose, the excised skin tissue was fixed in formalin, embedded in paraffin blocks, and stained with a Ki-67-specific antibody on tissue sections prepared as slides.
compound,measurement,setting,value
"12-[4-(2,2-dimethylmorpholin-4-yl)]dodecyl-N-(6-aminopurine-2-yl) carboxamide [Compound 11]",efficacy in improving dermatological symptoms,psoriasis-induced mice,excellent efficacy in improving dermatological symptoms
same,phospho-PDK1 expression level,[1]; listed as GO86,stronger PDK1 inhibition; also recorded: high inhibitory effects even at low concentrations
"Nc1ncccc1C(=O)NCCCCCCCCCCCCN1CCNCC1 [Compound 14, 2-Amino-N-(12-(piperazin-1-yl)dodecyl)nicotinamide]",collagen deposition (Masson's trichrome and Sirius red staining),[2],significantly reduced
same,expression of α-SMA (IHC),[2],significantly suppressed
same,efficacy in improving dermatological symptoms,psoriasis-induced mice,excellent efficacy in improving dermatological symptoms
same,phospho-PDK1 expression level,[1]; listed as GO88,stronger PDK1 inhibition; also recorded: high inhibitory effects even at low concentrations
same,hair growth on the facial region,[3],hair growth was confirmed
"Nc1ncccc1C(=O)NCCCCCCCCCCCCF [Compound 57, 2-Amino-N-(12-fluoro-dodecyl)-nicotinamide]",collagen deposition (Masson's trichrome and Sirius red staining),[2],significantly reduced
same,expression of α-SMA (IHC),[2],significantly suppressed
same,phospho-PDK1 expression level,[1],inhibitory effect on PDK1 phosphorylation
same,hair growth on the facial region,[3],hair growth was confirmed
